Experimental data as given in patent US6649618B2, “Substituted amidoalkyl-uracils and their use” (Bayer Aktiengesellschaft, priority 2000, dated 2003).
pEC50: −log10 of the molar value.

Tested on: MHEC5-T cells
Test: Cell protection assay (in vitro), H2O2-induced cell death, Alamar blue
Format: cell-based
Details: MHEC5-T endothelial cells, 3 mM H2O2, 5 hours; 50% of maximum protection, 10 μM DHCH defined as 100%; read-out: EC50, cell protection (in vitro)
Method: 2) Test Description Cell Protection Assay (in vitro)
In accordance with a method described by Bowes [Bowes et al., Br. J. Pharmacol., 124, 1760-1766 (1998)], the ability of PARS inhibitors to protect cells against cell death induced by incubation with H2O2 is examined in a cell protection assay. Incubation of endothelial cells with H2O2 results in the generation of DNA strand breaks which in turn activate PARS, resulting in a drastic energy decrease in the cells and in cell death. Living cells are quantified by a fluorimetric redox indicator (Alamar blue), which is converted in the electron transport system of the mitochondria.
Specifically, 7500 MHEC5-T cells/well (DSM ACC 336; German collection of microorganisms and cell cultures) are sown in 4 replications on a 96-well plate. After 24 hours, the cells are incubated with 3 mM aqueous H2O2 solution and differing concentrations of the substances in the presence of 6% by volume of Alamar blue solution in the medium at 37° C. for 5 hours. The reference substance used is 10 μM 1,5-dihydroxyisoquinoline (DHCH) solution. After the incubation, the fluorescence is measured at an excitation wavelength of 530-560 nm and an emission wavelength of 590 nm. The percentage for the cell protection is calculated as the difference between the living cells treated only with H2O2 and the cells treated with H2O2 and PARS inhibitors. The internal standard used is 10 μM DHCH, which is defined as 100% protection. The results obtained for the other substances are compared to this value.
The EC50 values indicate the concentration at which 50% of maximum cell protection is reached, maximum protection by 10 μM DHCH being defined as 100%. DHCH has an EC50 value of 2 μM.

SMILES	pEC50
CN(CCCn1c2c(c(=O)[nH]c1=O)CCCC2)S(=O)(=O)c1cccnc1 [Example 55]	6.40
CN(CCCn1c2c(c(=O)[nH]c1=O)CSCC2)S(=O)(=O)c1ccc2oc(=O)ccc2c1 [Example 57]	6.52
CN(CCCn1c2c(c(=O)[nH]c1=O)CCCC2)S(=O)(=O)c1cccc2nsnc12 [Example 61]	6.30
CN(CCCn1c2c(c(=O)[nH]c1=O)CSCC2)S(=O)(=O)c1ccsc1[N+](=O)[O-] [Example 67]	7.30
CN(CCCn1c2c(c(=O)[nH]c1=O)CSCC2)S(=O)(=O)c1ccc(F)cc1 [Example 58]	6.40
CN(CCCn1c2c(c(=O)[nH]c1=O)CSCC2)S(=O)(=O)c1ccccc1 [Example 2, N-[3-(2,4-Dioxo-3,4,7,8-tetrahydro-2H-thiopyrano[4,3-d]pyrimidin-1(5H)-yl)propyl]-N-methylphenylsulphonamide]	6.30
CN(CCCn1c2c(c(=O)[nH]c1=O)CSCC2)S(=O)(=O)c1cccnc1 [Example 59]	6.60

Same assay, conditions: MHEC5-T endothelial cells, 3 mM H2O2, 5 hours; reference substance; read-out: EC50 value, cell protection

SMILES	pEC50
Oc1cccc2c(O)nccc12 [DHCH, 1,5-dihydroxyisoquinoline, reference compound]	5.70

Tested on: not given
Test: not given
Details: not given

melting point [°C]	SMILES
189	O=C1CCCN1CCCn1c2c(c(=O)[nH]c1=O)CCCC2 [Example 1, 1-[3-(2-Oxo-1-pyrrolidinyl)propyl]-5,6,7,8-tetrahydro-2,4(1H,3H)-quinazolinedione]
> 240	O=c1[nH]c(=O)n(C2CCCC(NS(=O)(=O)c3ccc([N+](=O)[O-])cc3)C2)c2c1CCCC2 (centres unmarked) [Example 3, N-[3-(2,4-Dioxo-3,4,5,6,7,8-hexahydro-1(2H)-quinazolinyl)cyclohexyl]4-nitrobenzenesulphonamide]
> 240	CN(CCCn1c2c(c(=O)[nH]c1=O)CCCC2)S(=O)(=O)c1c(Cl)nc2sccn12 [Example 62]
170	CN(CCCn1c2c(c(=O)[nH]c1=O)CCCC2)S(=O)(=O)c1cccc2nsnc12 [Example 61]
> 240	O=c1ccc2cc(S(=O)(=O)NC3CCCC(n4c5c(c(=O)[nH]c4=O)CCCC5)C3)ccc2o1 (centres unmarked) [Example 51]
> 240	CC(=O)Nc1nc(C)c(S(=O)(=O)N(C)CCCn2c3c(c(=O)[nH]c2=O)CCCC3)s1 [Example 63]
128	CN(CCCn1c2c(c(=O)[nH]c1=O)CCCC2)S(=O)(=O)c1cn(C)cn1 [Example 65]

Tested on: cytochrome P450
Test: not given
Details: Eriksson et al. 1996; cited from earlier work

SMILES	inhibition of cytochrome P450 (unspecific PARS inhibitor)
NC(=O)c1cccc(N)c1 [3-aminobenzamide]	inhibits cytochrome P450

Tested on: not given
Test: not given
Details: Szabo and Dawson 1998; cited from earlier work

SMILES	side-effects
Nc1ccc2oc(=O)ccc2c1I [5-iodo-6-amino-1,2-benzopyrone]	serious side-effects
